Results: publication PMC9851200, “Multiparameter phenotypic screening for endogenous TFEB and TFE3 translocation identifies novel chemical series modulating lysosome function” (Autophagy, 2022)

How the values were obtained:
[1] = tested on: endogenous TFEB; experiment: TFEB nuclear translocation, immunocytochemistry high-content imaging; assay type: cell-based; settings: PKIS2 primary screening
[2] = tested on: endogenous TFE3; experiment: TFE3 nuclear translocation, immunocytochemistry high-content imaging; assay type: cell-based; settings: PKIS2 primary screening
[3] = tested on: SH-SY5Y cells; settings: PKIS2 primary screening; for DQ Intensity: DQ Red BSA intensity; for DQ Spot: DQ Red BSA spot count; for all read-outs here: reference of the scale not given here
[4] = tested on: SH-SY5Y cells; experiment: AK (adenylate kinase) release ToxiLight cytotoxicity assay; settings: PKIS2 primary screening; note: reference of the scale not given here
[5] = tested on: SH-SY5Y cells; experiment: Nuclear count from microscopy images (cellular growth and toxicity); settings: PKIS2 primary screening; note: reference of the scale not given here

| Compound | TFEB % [1] [%] | TFE3 % [2] [%] | DQ Intensity [3] | DQ Spot [3] | AK [4] | Nuclear Count [5] |
| --- | --- | --- | --- | --- | --- | --- |
| COc1ccc(Nc2nccc(-c3cccc(NC(=O)c4cc5cc(F)ccc5[nH]4)c3)n2)cc1 [GSK1229782] | 2.71 | 14.29 | 93.16 | 110.99 | 91.24 | 89.95 |
| COc1ccc(CNC(=O)NC2CCN(c3ccnc(Nc4ccc(F)cc4)n3)C2)cc1 (stereo not drawn) [GSK1379706] | 2.94 | 11.64 | 67.21 | 81.58 | 89.40 | 119.74 |
| N#Cc1cccc(C(=O)NC2CCN(c3ccnc(Nc4ccc(F)cc4)n3)C2)c1 (stereo not drawn) [GSK1379708] | 6.02 | 11.35 | 97.27 | 112.33 | 99.36 | 107.86 |
| CC(=O)c1cccc(NC(=O)NC2CCN(c3ccnc(Nc4ccc(F)cc4)n3)C2)c1 (stereo not drawn) [GSK1379710] | 4.15 | 16.11 | 124.22 | 115.02 | 70.15 | 98.98 |
| COC(=O)C(NC(=O)NC1CCN(c2ccnc(Nc3ccc(F)cc3)n2)C1)c1ccccc1 (stereo not drawn) [GSK1379712] | 9.98 | 6.91 | 132.02 | 102.90 | 111.30 | 98.27 |
| CC(C(=O)NC1CCN(c2ccnc(Nc3ccc(F)cc3)n2)C1)c1ccc(Cl)cc1 (stereo not drawn) [GSK1379713] | 6.54 | 10.33 | 153.18 | 124.60 | 94.01 | 84.41 |
| COC(=O)C(Cc1ccccc1)NC(=O)NC1CCN(c2ccnc(Nc3ccc(F)cc3)n2)C1 (stereo not drawn) [GSK1379714] | 4.19 | 7.75 | 97.62 | 115.84 | 95.90 | 110.40 |
| CCCc1ccc(S(=O)(=O)NC2CCN(c3ccnc(Nc4ccc(F)cc4)n3)C2)cc1 (stereo not drawn) [GSK1379715] | 6.97 | 11.31 | 80.29 | 105.29 | 100.57 | 97.10 |
| O=C(NC1CCN(c2ccnc(Nc3ccc(F)cc3)n2)C1)c1cc2ccccc2s1 (stereo not drawn) [GSK1379716] | 2.96 | 24.94 | 72.95 | 96.75 | 79.19 | 86.00 |
| Cn1cncc1C(=O)NC1CCN(c2ccnc(Nc3ccc(F)cc3)n2)C1 (stereo not drawn) [GSK1379717] | 3.86 | 10.47 | 84.19 | 97.80 | 113.98 | 85.90 |
| Cc1ccc(C)c(NC(=O)NC2CCN(c3ccnc(Nc4ccc(F)cc4)n3)C2)c1 (stereo not drawn) [GSK1379720] | 6.06 | 10.49 | 115.10 | 109.75 | 98.80 | 92.38 |
| COc1cccc(NC(=O)NC2CCN(c3ccnc(Nc4ccc(F)cc4)n3)C2)c1 (stereo not drawn) [GSK1379721] | 3.00 | 13.36 | 94.47 | 102.23 | 103.41 | 112.40 |
| O=C(Nc1ccccc1F)NC1CCN(c2ccnc(Nc3ccc(F)cc3)n2)C1 (stereo not drawn) [GSK1379722] | 14.40 | 10.71 | 129.34 | 121.71 | 94.79 | 114.62 |
| COc1cccc(CNC(=O)NC2CCN(c3ccnc(Nc4ccc(F)cc4)n3)C2)c1 (stereo not drawn) [GSK1379723] | 8.63 | 22.56 | 104.41 | 106.33 | 98.00 | 83.60 |
| O=C(Nc1ccc2c(c1)OCO2)NC1CCN(c2ccnc(Nc3ccc(F)cc3)n2)C1 (stereo not drawn) [GSK1379724] | 3.86 | 7.39 | 90.09 | 99.32 | 104.22 | 89.10 |
| COC(=O)c1cccc(NC(=O)NC2CCN(c3ccnc(Nc4ccc(F)cc4)n3)C2)c1 (stereo not drawn) [GSK1379725] | 7.57 | 21.26 | 80.47 | 88.32 | 90.74 | 95.32 |
| COc1ccc(CNC(=O)NC2CCN(c3ccnc(Nc4ccc(OC)cc4)n3)C2)cc1 (stereo not drawn) [GSK1379727] | 4.74 | 11.01 | 79.60 | 81.20 | 96.08 | 118.16 |

| Compound | TFEB % [1] [%] | TFE3 % [2] [%] | DQ Intensity [3] | DQ Spot [3] | AK [4] | Nuclear Count [5] |
| --- | --- | --- | --- | --- | --- | --- |
| COc1ccc(Nc2nccc(N3CCC(NS(=O)(=O)c4ccc(NC(C)=O)cc4)C3)n2)cc1 (stereo not drawn) [GSK1379729] | 5.22 | 16.51 | 76.81 | 100.23 | 69.35 | 90.61 |
| COc1ccc(Nc2nccc(N3CCC(NC(=O)c4cccc(C#N)c4)C3)n2)cc1 (stereo not drawn) [GSK1379730] | 9.20 | 13.54 | 67.56 | 85.55 | 125.87 | 108.33 |
| COc1ccc(Nc2nccc(N3CCC(NC(=O)Nc4cccc(C(C)=O)c4)C3)n2)cc1 (stereo not drawn) [GSK1379731] | 9.04 | 14.27 | 109.14 | 92.48 | 78.89 | 122.85 |
| COc1ccc(Nc2nccc(N3CCC(NC(=O)c4cccc(NC(C)=O)c4)C3)n2)cc1 (stereo not drawn) [GSK1379732] | 5.92 | 6.22 | 114.89 | 106.49 | 83.81 | 135.73 |
| COc1ccc(Nc2nccc(N3CCC(NC(=O)C(C)c4ccc(Cl)cc4)C3)n2)cc1 (stereo not drawn) [GSK1379735] | 5.13 | 11.71 | 99.92 | 94.04 | 70.53 | 119.80 |
| CCCc1ccc(S(=O)(=O)NC2CCN(c3ccnc(Nc4ccc(OC)cc4)n3)C2)cc1 (stereo not drawn) [GSK1379737] | 5.95 | 12.75 | 83.70 | 93.35 | 106.07 | 116.08 |
| COc1ccc(Nc2nccc(N3CCC(NC(=O)c4cc5ccccc5s4)C3)n2)cc1 (stereo not drawn) [GSK1379738] | 5.33 | 9.69 | 52.05 | 80.56 | 106.01 | 101.04 |
| COc1ccc(Nc2nccc(N3CCC(NC(=O)Nc4cc(C)ccc4C)C3)n2)cc1 (stereo not drawn) [GSK1379741] | 3.59 | 9.28 | 91.14 | 90.28 | 100.67 | 115.70 |
| COc1ccc(Nc2nccc(N3CCC(NC(=O)Nc4cccc(OC)c4)C3)n2)cc1 (stereo not drawn) [GSK1379742] | 8.93 | 16.87 | 119.16 | 99.38 | 126.78 | 103.65 |
| COc1ccc(Nc2nccc(N3CCC(NC(=O)Nc4ccc5c(c4)OCO5)C3)n2)cc1 (stereo not drawn) [GSK1379745] | 10.83 | 19.51 | 69.10 | 77.91 | 76.28 | 86.22 |
| COC(=O)c1cccc(NC(=O)NC2CCN(c3ccnc(Nc4ccc(OC)cc4)n3)C2)c1 (stereo not drawn) [GSK1379746] | 6.50 | 11.39 | 97.94 | 97.45 | 99.00 | 105.57 |
| COc1ccc(CNC(=O)NC2CCN(c3ccnc(Nc4cc(OC)c(OC)c(OC)c4)n3)C2)cc1 (stereo not drawn) [GSK1379748] | 3.68 | 7.30 | 92.45 | 91.07 | 124.35 | 99.04 |
| COc1cc(Nc2nccc(N3CCC(NC(=O)c4cccc(C#N)c4)C3)n2)cc(OC)c1OC (stereo not drawn) [GSK1379751] | 5.62 | 13.31 | 80.41 | 103.20 | 124.29 | 92.57 |
| COc1cc(Nc2nccc(N3CCC(NC(=O)Nc4cccc(C(C)=O)c4)C3)n2)cc(OC)c1OC (stereo not drawn) [GSK1379753] | 2.90 | 10.72 | 96.48 | 93.76 | 112.38 | 116.36 |
| COc1cc(Nc2nccc(N3CCC(NC(=O)c4cccc(NC(C)=O)c4)C3)n2)cc(OC)c1OC (stereo not drawn) [GSK1379754] | 3.28 | 7.67 | 91.71 | 95.86 | 115.02 | 143.24 |
| COc1cc(Nc2nccc(N3CCC(NC(=O)C(C)c4ccc(Cl)cc4)C3)n2)cc(OC)c1OC (stereo not drawn) [GSK1379757] | 5.14 | 15.24 | 100.22 | 95.49 | 97.54 | 80.40 |
| COc1cc(Nc2nccc(N3CCC(NC(=O)c4cc5ccccc5s4)C3)n2)cc(OC)c1OC (stereo not drawn) [GSK1379760] | 5.00 | 8.33 | 67.71 | 93.69 | 89.79 | 107.53 |
